# In paper PMC4278837, “A Cyclic Peptidic Serine Protease Inhibitor: Increasing Affinity by Increasing Peptide Flexibility” (PLoS ONE, 2014):
# Like-named read-outs stand apart in the source and are kept apart here. Bridge positions count the residues as written; N and C are the ends. Square brackets hold non-standard residues; d marks the D form. Peptide text beside a SMILES is read from it. Ala(1-amidino-4-piperidyl) = N=C(N)N1CCC(C[C@H](N)C(=O)O)CC1
# Legend:
# [1] = molecular target: T1, muPA K143A (Mus musculus, UniProt P06869, K322A); assay: Ki for inhibition of muPA-K143A, chromogenic substrate; assay type: biochemical, murine; conditions: means ± S.D.; read-out: K i for inhibition of muPA-K143A
# T1 construct: To ensure that the uPAs purified from the conditioned media were completely in the two-chain form, they were treated with plasmin; hexa-His (C); made in house; host or cells: HEK293 6E suspension cells
# T1 sequence (P06869 180-433 K322A): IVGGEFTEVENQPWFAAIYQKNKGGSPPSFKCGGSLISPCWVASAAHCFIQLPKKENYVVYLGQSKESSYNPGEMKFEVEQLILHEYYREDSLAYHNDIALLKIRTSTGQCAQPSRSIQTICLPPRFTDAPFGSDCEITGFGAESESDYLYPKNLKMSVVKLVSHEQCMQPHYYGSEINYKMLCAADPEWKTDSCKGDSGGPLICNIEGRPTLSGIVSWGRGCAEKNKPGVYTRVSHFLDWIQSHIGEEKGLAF
# T1 sequence (P06869 21-178 partner limits assumed): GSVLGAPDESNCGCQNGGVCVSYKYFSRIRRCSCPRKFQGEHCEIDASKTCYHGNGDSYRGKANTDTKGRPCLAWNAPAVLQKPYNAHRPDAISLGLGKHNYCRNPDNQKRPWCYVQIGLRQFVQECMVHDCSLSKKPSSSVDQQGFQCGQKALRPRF
# From the text: (§1) Determination of Ki values
# (§2) The initial reaction velocities were monitored at an absorbance of 405 nm. The inhibition constants (K i) were subsequently determined from the non-linear regression analyses of plots for V i/V o versus [I]0, using Equation 2, derived under assumption of competitive inhibition:
# (§3) [drawing 2] (2) where V i and V 0 are the reaction velocities in the presence and absence of inhibitor, respectively; [S]0 and [I]0 are the substrate and inhibitor concentrations, respectively; K M is K M for substrate hydrolysis by each protease. In Equation 2, it is assumed that [S]free ≈ [S]0 and [I]free ≈ [I]0.
# [2] = molecular target: T2, huPA-H99Y (Homo sapiens, UniProt P00749, C299A/H272Y/N322Q); assay: Isothermal titration calorimetry for binding to huPA-H99Y catalytic domain; conditions: ITC, 25°C, pH 7.4
# T2 construct: recombinant uPA catalytic domain (residues 159–411), harbouring a H99Y mutation; made in house; host or cells: Pichia pastoris X-33 (secreted)
# Procedure: For these experiments, we used the catalytic domain of huPA-H99Y expressed in and purified from Pichia pastoris strain X-33 (see above). The protein was dissolved in and dialysed against a buffer of 20 mM sodium phosphate, pH 7.4, 140 mM NaCl. The protein concentration was determined by absorbance at 280 nm, using an extinction coefficient of 43810 M^−1cm^−1. The peptides were dissolved in the above-mentioned buffer. All isothermal titration calorimetry experiments were performed with a MicroCal^TM ITC200 instrument equilibrated to a temperature of 25°C (298oK). The concentration of uPA-H99Y catalytic domain used in the 200 µl sample cell was 5–50 µM, depending on the affinity of the ligand. Titrations were performed by injecting 2 µl of the ligand until the total syringe volume of 40 µl was spent. Titration of ligand into buffer was performed to obtain buffer correction. The equilibrium association constant KA and the reaction enthalpy ΔH were calculated by fitting the integrated titration peaks using a one-binding-site model in the ITC ORIGIN7 programme package. The following formulas for Gibbs free energy ΔG were used to analyse the measured energies
# [drawing 4] (4) where R is the gas constant and T the absolute temperature. ΔS, the entropic change during the reaction, was calculated using equations 3 and 4 and the measured K A and ΔH values.
# [3] = molecular target: T3, muPA (Mus musculus, UniProt P06869); assay: Surface plasmon resonance analysis of peptide binding to muPA; design: species or system murine; conditions: SPR, 25°C, pH 7.4
# T3 construct: To ensure that the uPAs purified from the conditioned media were completely in the two-chain form, they were treated with plasmin; hexa-His (C); made in house; host or cells: HEK293 6E suspension cells
# T3 sequence (P06869 180-433 limits assumed): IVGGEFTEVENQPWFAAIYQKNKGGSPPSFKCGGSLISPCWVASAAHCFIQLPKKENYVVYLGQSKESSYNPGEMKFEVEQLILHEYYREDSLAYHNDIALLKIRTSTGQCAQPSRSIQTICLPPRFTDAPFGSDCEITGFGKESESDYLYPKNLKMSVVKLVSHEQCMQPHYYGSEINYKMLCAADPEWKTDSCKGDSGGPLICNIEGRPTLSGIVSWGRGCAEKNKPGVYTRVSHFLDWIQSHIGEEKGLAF
# T3 sequence (P06869 21-178 partner limits assumed): as the sequence (P06869 21-178 partner limits assumed) above
# Procedure: (§4) Surface plasmon resonance (SPR) analysis
# (§5) To determine the equilibrium binding constants (KD), the association rate constants (kon) and dissociation rate constants (koff) for peptide binding to uPA, surface plasmon resonance analysis was performed on a Biacore T200 instrument (Biacore, Uppsala, Sweden). A CM5 chip was coupled with the uPA variant (muPA or huPAH99Y) to be analysed, by injecting a concentration of 30 µg/mL uPA in immobilization buffer (10 mM sodium acetate, pH 5.0), aiming for an immobilised level of approximately 500 response units (RU). Immobilisation was followed by surface blocking with ethanolamine. A reference cell was prepared in the same way, without coupling of uPA. Mupain-1 variants in HBS with 0.1% BSA, in a dilution series, were injected at a flow rate of 30 µL per min during 60 s at 25°C. Subsequently, the dissociation was monitored during 600 s. Kinetic constants (k on and k off) were calculated with the Biacore Evaluation Software, using the 1∶1 kinetic fit. The K D values were calculated as k off /k on.
# [4] = molecular target: T4, muPA V213T (Mus musculus, UniProt P06869, V396T); assay: Ki for inhibition of muPA-V213T, chromogenic substrate; assay type: biochemical, murine; conditions: means ± S.D.; read-out: K i for inhibition of muPA-V213T
# T4 construct: To ensure that the uPAs purified from the conditioned media were completely in the two-chain form, they were treated with plasmin; hexa-His (C); made in house; host or cells: HEK293 6E suspension cells
# T4 sequence (P06869 180-433 V396T): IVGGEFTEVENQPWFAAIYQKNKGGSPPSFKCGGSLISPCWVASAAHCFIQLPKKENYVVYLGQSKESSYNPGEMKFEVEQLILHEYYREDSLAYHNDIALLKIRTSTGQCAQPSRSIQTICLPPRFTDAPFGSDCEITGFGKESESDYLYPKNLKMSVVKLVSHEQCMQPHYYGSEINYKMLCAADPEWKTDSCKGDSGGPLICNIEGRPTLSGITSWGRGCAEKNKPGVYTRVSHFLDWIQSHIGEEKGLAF
# T4 sequence (P06869 21-178 partner limits assumed): as the sequence (P06869 21-178 partner limits assumed) above
# From the text: as §1, §2, §3
# [5] = molecular target: T5, huPA-H99Y (Homo sapiens, UniProt P00749, H272Y); assay: Ki for inhibition of huPA-H99Y, chromogenic substrate S-2444; assay type: biochemical
# T5 construct: To ensure that the uPAs purified from the conditioned media were completely in the two-chain form, they were treated with plasmin; hexa-His (C); made in house; host or cells: HEK293 6E suspension cells
# From the text: as §1, §2, §3
# [6] = molecular target: T6, muPA Y99A (Mus musculus, UniProt P06869, Y274A); assay: Ki for inhibition of muPA-Y99A, chromogenic substrate; assay type: biochemical, murine; conditions: means ± S.D.; read-out: K i for inhibition of muPA-Y99A
# T6 construct: To ensure that the uPAs purified from the conditioned media were completely in the two-chain form, they were treated with plasmin; hexa-His (C); made in house; host or cells: HEK293 6E suspension cells
# T6 sequence (P06869 180-433 Y274A): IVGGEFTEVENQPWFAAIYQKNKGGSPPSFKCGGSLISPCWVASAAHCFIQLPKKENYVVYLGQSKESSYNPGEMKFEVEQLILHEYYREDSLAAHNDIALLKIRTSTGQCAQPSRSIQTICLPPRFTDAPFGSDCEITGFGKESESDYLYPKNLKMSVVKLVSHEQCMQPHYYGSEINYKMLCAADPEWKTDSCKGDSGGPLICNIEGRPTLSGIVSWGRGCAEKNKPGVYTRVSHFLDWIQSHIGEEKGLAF
# T6 sequence (P06869 21-178 partner limits assumed): as the sequence (P06869 21-178 partner limits assumed) above
# From the text: as §1, §2, §3
# [7] = molecular target: T5, huPA-H99Y; assay: Surface plasmon resonance analysis of peptide binding to huPA-H99Y; conditions: SPR, 25°C, pH 7.4
# Procedure: as §4, §5
# [8] = molecular target: T7, muPA S190A (Mus musculus, UniProt P06869, S373A); assay: Ki for inhibition of muPA-S190A, chromogenic substrate; assay type: biochemical, murine; conditions: means ± S.D.; read-out: K i for inhibition of muPA-S190A
# T7 construct: To ensure that the uPAs purified from the conditioned media were completely in the two-chain form, they were treated with plasmin; hexa-His (C); made in house; host or cells: HEK293 6E suspension cells
# T7 sequence (P06869 180-433 S373A): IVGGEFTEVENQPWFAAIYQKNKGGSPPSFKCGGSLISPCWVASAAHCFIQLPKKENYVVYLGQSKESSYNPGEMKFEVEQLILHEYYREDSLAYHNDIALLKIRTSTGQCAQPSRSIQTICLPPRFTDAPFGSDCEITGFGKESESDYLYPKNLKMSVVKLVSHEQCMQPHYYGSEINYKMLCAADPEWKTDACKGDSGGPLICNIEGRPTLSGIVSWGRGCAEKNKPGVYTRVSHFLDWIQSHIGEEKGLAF
# T7 sequence (P06869 21-178 partner limits assumed): as the sequence (P06869 21-178 partner limits assumed) above
# From the text: as §1, §2, §3
# [9] = molecular target: T8, huPA-H99Y R35A (Homo sapiens, UniProt P00749, H272Y/R198A); assay: Ki for inhibition of huPA-H99Y-R35A, chromogenic substrate; assay type: biochemical; conditions: 37°C; means ± S.D.; read-out: K i for inhibition of huPA-H99Y-R35A
# T8 construct: To ensure that the uPAs purified from the conditioned media were completely in the two-chain form, they were treated with plasmin; hexa-His (C); made in house; host or cells: HEK293 6E suspension cells
# From the text: as §1, §2, §3
# [10] = molecular target: T9, muPA K41A (Mus musculus, UniProt P06869, K210A); assay: Ki for inhibition of muPA-K41A, chromogenic substrate; assay type: biochemical, murine; conditions: means ± S.D.; read-out: K i for inhibition of muPA-K41A
# T9 construct: To ensure that the uPAs purified from the conditioned media were completely in the two-chain form, they were treated with plasmin; hexa-His (C); made in house; host or cells: HEK293 6E suspension cells
# T9 sequence (P06869 180-433 K210A): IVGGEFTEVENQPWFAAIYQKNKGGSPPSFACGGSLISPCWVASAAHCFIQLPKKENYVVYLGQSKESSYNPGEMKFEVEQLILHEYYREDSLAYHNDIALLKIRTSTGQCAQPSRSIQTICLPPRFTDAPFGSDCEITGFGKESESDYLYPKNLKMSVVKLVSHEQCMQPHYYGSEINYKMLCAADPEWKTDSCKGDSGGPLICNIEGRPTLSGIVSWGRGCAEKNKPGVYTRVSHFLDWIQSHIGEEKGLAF
# T9 sequence (P06869 21-178 partner limits assumed): as the sequence (P06869 21-178 partner limits assumed) above
# From the text: as §1, §2, §3
# [11] = molecular target: huPA-H99Y Q192A (Homo sapiens, UniProt P00749, H272Y/Q373A); assay: Ki for inhibition of huPA-H99Y-Q192A, chromogenic substrate; assay type: biochemical; design: To ensure that the uPAs purified from the conditioned media were completely in the two-chain form, they were treated with plasmin; hexa-His (C); made in house; host or cells: HEK293 6E suspension cells; conditions: 37°C; means ± S.D.; read-out: K i for inhibition of huPA-H99Y-Q192A
# From the text: as §1, §2, §3
# [12] = molecular target: T10, huPA-H99Y V41A (Homo sapiens, UniProt P00749, H272Y/V208A); assay: Ki for inhibition of huPA-H99Y-V41A, chromogenic substrate; assay type: biochemical; conditions: 37°C; means ± S.D.; read-out: K i for inhibition of huPA-H99Y-V41A
# T10 construct: To ensure that the uPAs purified from the conditioned media were completely in the two-chain form, they were treated with plasmin; hexa-His (C); made in house; host or cells: HEK293 6E suspension cells
# From the text: as §1, §2, §3
# [13] = molecular target: T11, huPA-H99Y K143A (Homo sapiens, UniProt P00749, H272Y/K320A); assay: Ki for inhibition of huPA-H99Y-K143A, chromogenic substrate; assay type: biochemical; conditions: 37°C; means ± S.D.; read-out: K i for inhibition of huPA-H99Y-K143A
# T11 construct: To ensure that the uPAs purified from the conditioned media were completely in the two-chain form, they were treated with plasmin; hexa-His (C); made in house; host or cells: HEK293 6E suspension cells
# From the text: as §1, §2, §3
# [14] = 37°C, means ± S.D., read-out: K i for inhibition of huPA-H99Y
structure (smiles),measurement,setting,value
"CC(=O)N[C@H]1CSSC[C@@H](C(N)=O)NC(=O)[C@H](C)NC(=O)[C@H](CC(C)C)NC(=O)[C@H](Cc2ccc(O)cc2)NC(=O)[C@H](CC2CCN(C(=N)N)CC2)NC(=O)[C@H](CO)NC(=O)[C@H](Cc2ccc(O)cc2)NC(=O)[C@H](C)NC(=O)[C@@H]2CCCN2C1=O [Mupain-1-16 D9A, CPAYS[L-3-(N-amidino-4-piperidyl)alanine]YLAC] (Ac-CPAYS[Ala(1-amidino-4-piperidyl)]YLAC-NH2; disulfide 1-10)",Ki,[1],0.1 ± 0.02 µM
same,Kd,[2],0.134 ± 0.061 µM
same,N,[2],0.88±0.11 (5)
same,TΔS,[2],−6.2±2.7 (5) ^1 kJ/mole
same,ΔG,[2],−39.5±1.1 (5) ^1 kJ/mole
same,ΔH,[2],−46.6±2.9 (5) ^1 kJ/mole
same,"k off, muPA",[3],"1.22±0.06 (3) s^−1, ×10^2"
same,"k on, muPA",[3],"5.79±0.82 (3) M^−1s^−1, ×10^−5"
same,Ki,[4],0.014 ± 0.004 µM
same,Ki,[5]; [14],0.309 ± 0.013 µM
same,Ki,[6],1.36 ± 0.33 µM
same,"k off, huPA-H99Y",[7],"3.33±0.13 (4) s^-1, ×10^2"
same,"k on, huPA-H99Y",[7],"4.65±0.27 (4) M^-1s^-1, ×10^-5"
same,Kd,"[7]; calculated as k off/k on, read-out: K D, huPA-H99Y",0.0718 ± 0.006 µM
same,Ki,[8],0.529 ± 0.052 µM
same,Ki,[9],0.174 ± 0.059 µM
same,Ki,[10],0.014 ± 0.002 µM
same,Ki,[11],0.438 ± 0.072 µM
same,Ki,[12],0.48 ± 0.158 µM
same,Ki,[13],0.188 ± 0.057 µM
"CC(=O)N[C@H]1CSSC[C@@H](C(N)=O)NC(=O)[C@H](CC(=O)O)NC(=O)[C@H](CC(C)C)NC(=O)[C@H](Cc2ccc(O)cc2)NC(=O)[C@H](C)NC(=O)[C@H](CO)NC(=O)[C@H](Cc2ccc(O)cc2)NC(=O)[C@H](C)NC(=O)[C@@H]2CCCN2C1=O [Mupain-1 R6A, CPAYSAYLDC] (Ac-CPAYSAYLDC-NH2; disulfide 1-10)",Ki,[5],> 1000 µM
"CC(=O)N[C@H]1CSSC[C@@H](C(N)=O)NC(=O)[C@H](CC(=O)O)NC(=O)[C@H](CC(C)C)NC(=O)[C@H](Cc2ccc(O)cc2)NC(=O)[C@H](CCCNC(=N)N)NC(=O)[C@H](C)NC(=O)[C@H](Cc2ccc(O)cc2)NC(=O)[C@H](C)NC(=O)[C@@H]2CCCN2C1=O [Mupain-1 S5A, CPAYARYLDC] (Ac-CPAYARYLDC-NH2; disulfide 1-10)",Ki,[5]; [14],> 1000 µM
"CC(=O)N[C@H]1CSSC[C@@H](C(N)=O)NC(=O)[C@H](CC(=O)O)NC(=O)[C@H](CC(C)C)NC(=O)[C@H](Cc2ccc(O)cc2)NC(=O)[C@H](CCCNC(=N)N)NC(=O)[C@H](CO)NC(=O)[C@H](C)NC(=O)[C@H](C)NC(=O)[C@@H]2CCCN2C1=O [Mupain-1 Y4A, CPAASRYLDC] (Ac-CPAASRYLDC-NH2; disulfide 1-10)",Ki,[5]; [14],> 1000 µM
